Where two headings read alike, the source gives them in different places.
Legend:
[1] = test system: brewers' yeast-induced hyperthermia; test: antipyretic activity, brewers' yeast-induced hyperthermia; format: in vivo, albino male Wistar rats
Experimental: The animals were caged under the same conditions as those described in the preceding tests. Five hours following […], determined by a rectal probe connected to a YSI thermometer (73 ATP model, Yellow Springs Instrument Company) were selected for the experiment. The animals were then randomized into groups of 10 and the compounds under examination and the vehicle were administered via the oral and parenteral routes testing each dose in two groups. Body temperature was determined at one, two and three hours after administration of the substances. […]

solubility = format: physicochemical
in vivo [2] = details: mouse
in vivo [3] = details: rat
gastric lesions = format: in vivo, male Wistar rats; details: 4 consecutive days; for gastric damage index: I=mean no. of lesions+mean of severity+% incidence/10; for mean severity: scale 0 (no lesion) to 5 (perforations)
Experimental: Male Wistar rats weighing 180 g were randomized into groups of 10. Three doses of each compound were administered. One group received the vehicle alone (10 ml/kg b.w.). Each dose was given orally for four days consecutively and the rats were sacrificed on the fifth day for necropsy. The ulcerogenic effect was evaluated by the following scale:
(1) each haemorrhagic point at least 1 mm in diameter was scored as 1 lesion,
(2) haemorrhagic points less than 1 mm in diameter were scored in the following manner:
(c) 20 to 29=three lesions
By means of this scale it was possible to obtain the gastric damage index:
I=mean no. of lesions+mean of severity+% incidence/10

Compound	% Temperature decrease ([1]; 50 mg/Kg i.p., 1 h)	% Temperature decrease ([1]; 50 mg/Kg i.p., 2 h)	% Temperature decrease ([1]; 50 mg/Kg i.p., 3 h)	% Temperature decrease ([1]; 50 mg/Kg per os, 1 h)	% Temperature decrease ([1]; 50 mg/Kg per os, 2 h)	% Temperature decrease ([1]; 50 mg/Kg per os, 3 h)	% Temperature decrease ([1]; 75 mg/Kg i.p., 1 h)	% Temperature decrease ([1]; 75 mg/Kg i.p., 2 h)	% Temperature decrease ([1]; 75 mg/Kg i.p., 3 h)	% Temperature decrease ([1]; 75 mg/Kg per os, 1 h)	% Temperature decrease ([1]; 75 mg/Kg per os, 2 h)	% Temperature decrease ([1]; 75 mg/Kg per os, 3 h)	% Temperature decrease ([1]; 100 mg/Kg i.p., 1 h)	% Temperature decrease ([1]; 100 mg/Kg i.p., 2 h)	% Temperature decrease ([1]; 100 mg/Kg i.p., 3 h)	% Temperature decrease ([1]; 100 mg/Kg per os, 1 h)	% Temperature decrease ([1]; 100 mg/Kg per os, 2 h)	% Temperature decrease ([1]; 100 mg/Kg per os, 3 h)	% incidence/10 (head is drawing 38) (gastric lesions; 50 mg/Kg orally)	mean no. of lesions (gastric lesions; 50 mg/Kg orally)	also measured
Cc1ccc(C(=O)c2ccc(CC(=O)NCC(=O)O)n2C)cc1 [Compound 1-c, 1-methyl-5-p-toluoylpyrrole-2-acetamidoacetic acid]	20.0%	21.9%	36.0%	15.0%	23.0%	32.0%	19.0%	32.6%	45.2%	16.5%	30.7%	42.1%	35.0%	49.1%	65.7%	27.1%	31.2%	57.9%	7	1	Solubility (solubility): soluble in alkali; LD50 (in vivo [2]; ip): 700 mg/kg; LD50 (in vivo [2]; po): 1000 mg/kg; LD50 (in vivo [3]; ip): 780 mg/kg; LD50 (in vivo [3]; po): 1300 mg/kg; gastric damage index (gastric lesions; 50 mg/Kg orally): 9.5; mean severity (gastric lesions; 50 mg/Kg orally): 1.5; % incidence/10 (head is drawing 38) (gastric lesions; 100 mg/Kg orally): 8; mean no. of lesions (gastric lesions; 100 mg/Kg orally): 2; gastric damage index (gastric lesions; 100 mg/Kg orally): 12; mean severity (gastric lesions; 100 mg/Kg orally): 2; % incidence/10 (head is drawing 38) (gastric lesions; 200 mg/Kg orally): 9; mean no. of lesions (gastric lesions; 200 mg/Kg orally): 2.5; gastric damage index (gastric lesions; 200 mg/Kg orally): 13.5; mean severity (gastric lesions; 200 mg/Kg orally): 2
CCOC(=O)c1ccc(NC(=O)Cc2ccc(C(=O)c3ccc(C)cc3)n2C)cc1 [Compound 1-h, 1-methyl-5-p-toluoylpyrrole-2-N-(4-carboxyethyl-phenyl) acetamide]	12.0%	29.1%	36.2%	13.0%	28.0%	31.1%	18.0%	27.2%	39.4%	17.0%	29.1%	39.4%	23.1%	39.3%	60.2%	21.0%	35.1%	51.8%	7	1	gastric damage index (gastric lesions; 50 mg/Kg orally): 9; mean severity (gastric lesions; 50 mg/Kg orally): 1; % incidence/10 (head is drawing 38) (gastric lesions; 100 mg/Kg orally): 8; mean no. of lesions (gastric lesions; 100 mg/Kg orally): 1.5; gastric damage index (gastric lesions; 100 mg/Kg orally): 10.5; mean severity (gastric lesions; 100 mg/Kg orally): 1; % incidence/10 (head is drawing 38) (gastric lesions; 200 mg/Kg orally): 8; mean no. of lesions (gastric lesions; 200 mg/Kg orally): 2; gastric damage index (gastric lesions; 200 mg/Kg orally): 11.5; mean severity (gastric lesions; 200 mg/Kg orally): 1.5
